Assay results from patent publication US10766903B2 (ALMAC DISCOVERY LIMITED, priority 2016, dated 2020).

target: USP7 (Homo sapiens (Human), UniProt Q93009); assay: USP7 fluorescence polarisation (FP) biochemical assay, ubiquitin-Lys-TAMRA substrate; settings: not given
Protocol: Measurement of USP7 Inhibitory Activity
USP7 activity was monitored in a fluorescence polarisation (FP) homogeneous assay using the isopeptide ubiquitin-Lys-TAMRA substrate (U-558, Boston Biochem). Full-length USP7 was purchased from Boston Biochem (His6-USP7FL, E-519). Unless otherwise stated, all other reagents were purchased from Sigma-Aldrich. Enzymatic reactions were conducted in black flat-bottom polystyrene 384-well plates (Nunc) and 15 μL total volume. USP7 (2.5 nM, 5 μL) was incubated in assay buffer (50 mM HEPES (pH 7.2), 150 mM NaCl, 0.5 mM EDTA, 5 mM DTT, 0.05% BSA (w/v), 0.05% CHAPS) in the presence or absence of inhibitor (5 μl). Inhibitors were stored as 10 mM DMSO stocks in an inert environment (low humidity, dark, low oxygen, room temperature) using a Storage Pod System and serial dilutions were prepared in buffer just prior to the assay (from 200 to 0.1 μM, 8 dp curve). […] FP was measured every 15 min over a period of 1.5 h (within the linear range of the assay) using a Synergy 4 plate reader (BioTek) exciting at 530 nm and measuring the amount of parallel and perpendicular light at 575 nm. The FP signal was subsequently normalised to the control without compound present.

USP7, sequence (Q93009 whole entry): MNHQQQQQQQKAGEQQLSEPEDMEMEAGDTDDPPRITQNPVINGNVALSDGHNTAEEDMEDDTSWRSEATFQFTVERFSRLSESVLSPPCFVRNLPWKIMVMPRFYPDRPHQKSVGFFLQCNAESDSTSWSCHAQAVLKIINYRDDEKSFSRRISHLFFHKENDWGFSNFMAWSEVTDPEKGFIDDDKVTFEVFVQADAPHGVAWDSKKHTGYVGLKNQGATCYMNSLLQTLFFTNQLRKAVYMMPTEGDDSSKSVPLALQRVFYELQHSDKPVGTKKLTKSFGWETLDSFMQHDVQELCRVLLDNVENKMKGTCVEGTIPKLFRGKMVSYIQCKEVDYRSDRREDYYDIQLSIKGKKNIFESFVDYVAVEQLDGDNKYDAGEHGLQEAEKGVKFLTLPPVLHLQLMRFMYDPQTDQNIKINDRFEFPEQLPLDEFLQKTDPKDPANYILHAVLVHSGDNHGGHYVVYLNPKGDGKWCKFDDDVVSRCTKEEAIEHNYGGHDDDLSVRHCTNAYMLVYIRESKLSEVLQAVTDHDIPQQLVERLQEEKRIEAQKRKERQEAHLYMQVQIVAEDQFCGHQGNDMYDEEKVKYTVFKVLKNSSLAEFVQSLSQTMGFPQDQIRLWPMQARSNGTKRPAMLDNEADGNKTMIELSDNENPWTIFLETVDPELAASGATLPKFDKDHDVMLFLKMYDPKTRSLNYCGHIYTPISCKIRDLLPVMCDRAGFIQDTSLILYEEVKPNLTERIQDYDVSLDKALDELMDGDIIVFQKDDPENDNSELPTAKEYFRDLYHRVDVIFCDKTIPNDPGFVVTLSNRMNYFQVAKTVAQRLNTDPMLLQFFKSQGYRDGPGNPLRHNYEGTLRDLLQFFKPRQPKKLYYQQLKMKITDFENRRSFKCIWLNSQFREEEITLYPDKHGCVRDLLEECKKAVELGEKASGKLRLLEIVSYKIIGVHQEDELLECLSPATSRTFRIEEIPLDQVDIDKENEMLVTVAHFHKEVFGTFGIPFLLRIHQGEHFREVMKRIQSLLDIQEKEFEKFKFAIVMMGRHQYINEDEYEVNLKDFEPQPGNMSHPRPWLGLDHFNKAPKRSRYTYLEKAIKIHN

Compound `C[C@H](CC(=O)N1CCC(O)(Cn2cnc(OCCN(C)C)cc2=O)CC1)c1ccccc1` [Example 10, (R)-6-(2-(Dimethylamino)ethoxy)-3-((4-hydroxy-1-(3-phenylbutanoyl)piperidin-4-yl)methyl)pyrimidin-4(3H)-one] has an IC50 of 1 to 200 µM.

same assay, conditions: Table 4, biochemical assay; average of at least duplicate experiments; read-out: USP7 IC50

First: COCC(CC(=O)N1CCC(O)(Cn2cnc3c(-c4ccc(CN)cc4)n(C)nc3c2=O)CC1)c1ccccc1 (racemic) [Example 53, (R,S)-3-(4-(Aminomethyl)phenyl)-6-((4-hydroxy-1-(4-methoxy-3-phenylbutanoyl)piperidin-4-yl)methyl)-2-methyl-2H-pyrazolo[4,3-d]pyrimidin-7(6H)-one]
Second: C[C@H](CC(=O)N1CCC(O)(Cn2cnc(-c3ccncc3)cc2=O)CC1)c1ccccc1 [Example 2, (R)-3-((4-Hydroxy-1-(3-phenylbutanoyl)piperidin-4-yl)methyl)-6-(pyridin-4-yl)pyrimidin-4(3H)-one]
The IC50 of the first is lower: < 0.25 µM for the first, 1 to 200 µM for the second.

`C[C@H](CC(=O)N1CCC(O)(Cn2cnc(NC3CCCC[C@H]3N)cc2=O)CC1)c1ccccc1` (mixture of isomers) [Example 63, rac-6-(((±-trans-1,2)-2-Aminocyclohexyl)amino)-3-((4-hydroxy-1-((R)-3-phenylbutanoyl)piperidin-4-yl)methyl)pyrimidin-4(3H)-one, Formic Acid] and `C[C@H](CC(=O)N1CCC(O)(Cn2cnc(N[C@@H]3CCCC[C@@H]3N)cc2=O)CC1)c1ccccc1` (racemic) [Example 64, 6-(((±-cis-1,2)-2-Aminocyclohexyl)amino)-3-((4-hydroxy-1-((R)-3-phenylbutanoyl)piperidin-4-yl)methyl)pyrimidin-4(3H)-one, Formic Acid] fall in the same range of IC50: 0.25 to 0.999 µM for the first, 0.25 to 0.999 µM for the second.

`C[C@H](CC(=O)N1CCC(O)(Cn2cnc(Cl)cc2=O)CC1)c1ccccc1` [Example 1, (R)-6-Chloro-3-((4-hydroxy-1-(3-phenylbutanoyl)piperidin-4-yl)methyl)pyrimidin-4(3H)-one] and `C[C@H](CC(=O)N1CCC(O)(Cn2cnc(N)cc2=O)CC1)c1ccccc1` [Example 5, (R)-6-Amino-3-((4-hydroxy-1-(3-phenylbutanoyl)piperidin-4-yl)methyl)pyrimidin-4(3H)-one] fall in the same range of IC50: 1 to 200 µM for the first, 1 to 200 µM for the second.

First: C[C@H](CC(=O)N1CCC(O)(Cn2cnc(N3CCN(C)CC3)cc2=O)CC1)c1ccccc1 [Example 8, (R)-3-((4-Hydroxy-1-(3-phenylbutanoyl)piperidin-4-yl)methyl)-6-(4-methylpiperazin-1-yl)pyrimidin-4(3H)-one]
Second: C[C@H](CC(=O)N1CCC(O)(Cn2cnc(N3CC[C@H](N)C3)cc2=O)CC1)c1ccccc1 [Example 12, 6-((S)-3-Aminopyrrolidin-1-yl)-3-((4-hydroxy-1-((R)-3-phenylbutanoyl)piperidin-4-yl)methyl)pyrimidin-4(3H)-one]
The IC50 of the first is higher: 1 to 200 µM for the first, < 0.25 µM for the second. The second is the more potent here.

Compound `COc1cc(=O)n(CC2(O)CCN(C(=O)C[C@@H](C)c3ccccc3)CC2)cn1` [Example 9, (R)-3-((4-Hydroxy-1-(3-phenylbutanoyl)piperidin-4-yl)methyl)-6-methoxypyrimidin-4(3H)-one] has an IC50 of 1 to 200 µM.

same assay, conditions: USP7 IC50, Table 4, biochemical assay; average of at least duplicate experiments

First: C[C@H](CC(=O)N1CCC(O)(Cn2cnc(N3C[C@@H]4C[C@H]3CN(C)C4)cc2=O)CC1)c1ccccc1 (single isomer, unassigned) [Example 180]
Second: C[C@H](CC(=O)N1CCC(O)(Cn2cnc(N3C[C@H]4C[C@@H]3CN(C)C4)cc2=O)CC1)c1ccccc1 (single isomer, unassigned) [Example 181]
The IC50 of the first is lower: < 0.25 µM for the first, 0.25 to 0.999 µM for the second. The first is the more potent here.

`C[C@H](CC(=O)N1CCC(O)(Cn2cnc(-c3ccn[nH]3)cc2=O)CC1)c1ccccc1` [Example 3, (R)-3-((4-Hydroxy-1-(3-phenylbutanoyl)piperidin-4-yl)methyl)-6-(1H-pyrazol-5-yl)pyrimidin-4(3H)-one] and `C[C@H](CC(=O)N1CCC(O)(Cn2cnc(N3CC(N)C3)cc2=O)CC1)c1ccccc1` [Example 13, (R)-6-(3-Aminoazetidin-1-yl)-3-((4-hydroxy-1-(3-phenylbutanoyl)piperidin-4-yl)methyl)pyrimidin-4(3H)-one] fall in the same range of IC50: 0.25 to 0.999 µM for the first, 0.25 to 0.999 µM for the second.
